Read-outs that look alike come from different tables or passages of the source.
Key:
[1] = Partition coefficient (log Po/w) of radiopeptides; format: physicochemical
Text: Table 7 lists each peptide's name, isoelectric point (PI), charge (number of positive residues), calculated mass (in Da), and ion found; as well as the name, calculated mass, and found ion for the corresponding conjugate; and also retention times in HPLC and the partition coefficient (log Po/w). These values allowed the determination of the hydrophilic nature of peptides, where pepH1 and pepH4 were identified as the most hydrophilic peptides.

[2] = Biodistribution of technetium-labelled peptides; format: in vivo, CD1 mice; details: iv, 80 ug/mouse, total radioactivity, 80 μg/mouse
Method: To evaluate the capacity to cross the BBB in vivo, the selected peptides, pepH1 and pepH3, were analyzed for biodistribution in CD1 mice. The peptides were labelled with technetium at a final concentration of 8.5×10^−5 M and diluted in PBS. CD1 mice were injected (iv injection, tail vein). The mice were sacrificed by cervical dislocation after 5 and 60 minutes of incubation. The tissues of interest were dissected and washed to remove excess blood, weighed, and measured for radioactivity. Technetium radioactivity of the different peptides was measured for different organs.
Initial results are presented in Table 11, where “% I.A. refers to the “% injected activity”, that is, the amount of radioactivity measured in a given organ compared to the total originally injected.
The biodistribution studies were repeated, using higher doses of each peptide, specifically, a one hundred fold increase, as well as using PepH2 as a negative control, and allowing incubation for 2 minutes and 60 minutes. Tissue biodistribution profile in percentage of injected radiopeptide activity per gram of tissue/organ was measured and results are presented in Table 12.

For `CSCC[C@H](NC(=O)[C@H](Cc1ccccc1)NC(=O)[C@H](CC(C)C)NC(=O)[C@H](CCCCN)NC(=O)CCCN(CCN)CCn1nc(C)c(CC(=O)O)c1C)C(=O)N[C@@H](C)C(=O)N[C@@H](CC(C)C)C(=O)N[C@H](C(=O)N[C@@H](C)C(=O)N[C@@H](Cc1ccccc1)C(=O)N[C@@H](CC(C)C)C(=O)N[C@@H](CCCNC(=N)N)C(=O)N[C@@H](Cc1ccccc1)C(=O)N[C@@H](CC(C)C)C(=O)N[C@H](C(=O)O)[C@@H](C)O)C(C)C` [^99mTc(CO)3-Pz^1-pepH2, metal not drawn], the “log Po/w of radiopeptides” value [1] was 0.65 ± 0.13, the tissue uptake at 2 min ([2]; CD1, blood, read-out: injected activity in Blood) was 8.9 ± 0.6 %ID/g and the tissue uptake at 1 h ([2]; CD1, blood, 1 hour, read-out: injected activity in Blood) was 3.8 ± 0.2 %ID/g. The tissue uptake at 2 min ([2]; CD1, bone, read-out: injected activity in Bone) was 1.6 ± 0.1 %ID/g, the tissue uptake at 1 h ([2]; CD1, bone, 1 hour, read-out: injected activity in Bone) was 1.4 ± 0.1 %ID/g and the tissue uptake at 2 min ([2]; CD1, brain, read-out: injected activity in Brain) was 0.37 ± 0.04 %ID/g. It also gave a tissue uptake at 1 h ([2]; CD1, brain, 1 hour, read-out: injected activity in Brain) of 0.2 ± 0.1 %ID/g, a tissue uptake at 2 min ([2]; CD1, heart, read-out: injected activity in Heart) of 3.45 ± 0.02 %ID/g and a tissue uptake at 1 h ([2]; CD1, heart, 1 hour, read-out: injected activity in Heart) of 1.2 ± 0.2 %ID/g. It also gave a dose excreted at 1 h ([2]; CD1, in vivo, 1 hour, read-out: Excretion) of 12.7 ± 4.2%, a tissue uptake at 2 min ([2]; CD1, intestine, read-out: injected activity in Intestine) of 0.5 ± 0.1 %ID/g and a tissue uptake at 1 h ([2]; CD1, intestine, 1 hour, read-out: injected activity in Intestine) of 1.64 ± 0.07 %ID/g. The tissue uptake at 2 min ([2]; CD1, kidney, read-out: injected activity in Kidney) was 5 ± 1.5 %ID/g, the tissue uptake at 1 h ([2]; CD1, kidney, 1 hour, read-out: injected activity in Kidney) was 3.3 ± 0.8 %ID/g and the tissue uptake at 2 min ([2]; CD1, liver, read-out: injected activity in Liver) was 16.7 ± 1.1 %ID/g. The tissue uptake at 1 h ([2]; CD1, liver, 1 hour, read-out: injected activity in Liver) was 21.7 ± 0.9 %ID/g, the tissue uptake at 2 min ([2]; CD1, lung, read-out: injected activity in Lung) was 126 ± 20 %ID/g and the tissue uptake at 1 h ([2]; CD1, lung, 1 hour, read-out: injected activity in Lung) was 51.4 ± 4.4 %ID/g. For the same compound, the tissue uptake at 2 min ([2]; CD1, muscle, read-out: injected activity in Muscle) was 0.61 ± 0.09 %ID/g, the tissue uptake at 1 h ([2]; CD1, muscle, 1 hour, read-out: injected activity in Muscle) was 0.43 ± 0.03 %ID/g and the tissue uptake at 2 min ([2]; CD1, spleen, read-out: injected activity in Spleen) was 13.6 ± 0.3 %ID/g. It also gave a tissue uptake at 1 h ([2]; CD1, spleen, 1 hour, read-out: injected activity in Spleen) of 10.6 ± 0.4 %ID/g, a tissue uptake at 2 min ([2]; CD1, stomach, read-out: injected activity in Stomach) of 2 ± 0.6 %ID/g and a tissue uptake at 1 h ([2]; CD1, stomach, 1 hour, read-out: injected activity in Stomach) of 9.4 ± 0.2 %ID/g.
